How the values were obtained:
Details in all cases: compound at 10 μM
[1] = molecular target: T1, Human melanin-concentrating hormone (MCH1) (Homo sapiens, UniProt Q99705); assay: Radioligand binding, human melanin-concentrating hormone MCH1 membranes, FlashPlate, [125I]-S36057
T1 construct: purchased Perkin Elmer Biosignal
In short: (§1)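 Cloned human receptor membranes were coated onto FlashPlate wells and incubated with radioligand and compound (added from a 0.5 mM DMSO daughter plate) for 1 hour at room temperature in the dark. Scintillation counting gave percent inhibition, with DMSO defining total and reference ligand defining non-specific binding.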

Human κ-Opioid (KOP) = molecular target: T2, Human κ-Opioid (KOP) (Homo sapiens, UniProt P41145); assay: Radioligand binding, human κ-opioid (KOP) membranes, filtration, [3H]-Diprenorphine
T2 construct: purchased Perkin Elmer Biosignal
In short: (§2)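 Percent inhibition of radioligand binding measured on recombinant human membranes: NK1 with [125I]-Substance P, KOP with [3H]-Diprenorphine. Incubation 1 h at room temperature, then harvest onto 0.3% PEI-soaked filters, cold Tris-HCl pH 7.4 washes and scintillation counting; non-specific binding from reference ligand wells.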

Human opioid (ORL1) = molecular target: T3, Human opioid (ORL1) (Homo sapiens, UniProt P41146); assay: Radioligand binding, human opioid ORL1 membranes, FlashPlate, [125I]-Nociceptin
T3 construct: purchased Perkin Elmer Biosignal
In short: as §1

Human Melanocortin (MC3) = molecular target: T4, Human Melanocortin (MC3) (Homo sapiens, UniProt P41968); assay: Radioligand binding, human melanocortin MC3 membranes, FlashPlate, [125I]-NDP-αMSH
T4 construct: purchased Perkin Elmer Biosignal
In short: as §1

Human δ-opioid (DOP) = molecular target: T5, Human δ-opioid (DOP) (Homo sapiens, UniProt P41143); assay: Radioligand binding, human δ-opioid (DOP) membranes, FlashPlate, [3H]-Bremazocine
T5 construct: purchased Perkin Elmer Biosignal
In short: as §1

Human μ-opioid (MOP) = molecular target: T6, Human μ-opioid (MOP) (Homo sapiens, UniProt P35372); assay: Radioligand binding, human μ-opioid (MOP) membranes, FlashPlate, [3H]-Naloxone
T6 construct: purchased Perkin Elmer Biosignal
In short: as §1

[2] = molecular target: T7, Human neuropeptide Y (NPY-Y1) (Homo sapiens, UniProt P25929); assay: Radioligand binding, human neuropeptide Y NPY-Y1 membranes, FlashPlate, [125I]-PYY
T7 construct: purchased Perkin Elmer Biosignal
T7 sequence (P25929 1-384): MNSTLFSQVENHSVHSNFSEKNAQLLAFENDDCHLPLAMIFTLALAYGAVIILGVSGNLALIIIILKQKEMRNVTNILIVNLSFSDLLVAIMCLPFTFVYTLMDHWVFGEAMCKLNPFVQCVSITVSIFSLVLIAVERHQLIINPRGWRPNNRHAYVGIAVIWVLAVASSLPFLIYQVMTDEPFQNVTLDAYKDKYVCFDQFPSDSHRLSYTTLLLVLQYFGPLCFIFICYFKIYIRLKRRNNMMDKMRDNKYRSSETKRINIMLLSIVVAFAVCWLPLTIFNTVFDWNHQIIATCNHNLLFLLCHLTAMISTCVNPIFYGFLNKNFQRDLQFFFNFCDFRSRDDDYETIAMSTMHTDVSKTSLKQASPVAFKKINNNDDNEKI
In short: as §1

Human melanocortin (MC5) = molecular target: T8, Human melanocortin (MC5) (Homo sapiens, UniProt P33032); assay: Radioligand binding, human melanocortin MC5 membranes, FlashPlate, [125I]-NDP-αMSH
T8 construct: purchased Perkin Elmer Biosignal
In short: as §1

Mouse urotensin (mUR2) = molecular target: T9, Mouse urotensin (mUR2) (Mus musculus, UniProt Q8VIH9); assay: Radioligand binding, mouse urotensin mUR2 membranes, FlashPlate, [125I]-Urotensin II
T9 construct: purchased Perkin Elmer Biosignal
T9 sequence (Q8VIH9 1-385): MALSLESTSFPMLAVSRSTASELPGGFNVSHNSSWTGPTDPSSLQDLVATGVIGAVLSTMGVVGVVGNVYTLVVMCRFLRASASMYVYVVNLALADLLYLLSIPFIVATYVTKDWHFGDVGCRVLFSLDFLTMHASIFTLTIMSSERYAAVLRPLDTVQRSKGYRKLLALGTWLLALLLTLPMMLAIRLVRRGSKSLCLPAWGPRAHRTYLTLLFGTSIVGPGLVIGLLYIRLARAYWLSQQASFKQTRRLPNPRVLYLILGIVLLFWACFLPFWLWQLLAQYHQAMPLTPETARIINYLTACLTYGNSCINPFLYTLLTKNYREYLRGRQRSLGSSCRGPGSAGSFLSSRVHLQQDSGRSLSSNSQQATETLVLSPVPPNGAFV
In short: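 Cloned mouse urotensin (mUR2) receptor membranes from Perkin Elmer Biosignal were immobilized in FlashPlate microplates using a proprietary coating. Each well got 19.5 μl buffer, then 0.5 μl of DMSO, reference ligand, or compound. Adding 5 μl of [125I]-Urotensin II, diluted to 5× final concentration in binding buffer, started binding. Plates were sealed with TopSeal-A and incubated 1 hour at room temperature in the dark. Wells were counted for 30 seconds each on a TopCount after a 60-second delay, and percentage inhibition was calculated.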

Human Melanocortin (MC4) = molecular target: T10, Human Melanocortin (MC4) (Homo sapiens, UniProt P32245); assay: Radioligand binding, human melanocortin MC4 membranes, FlashPlate, [125I]-NDP-αMSH
T10 construct: purchased Perkin Elmer Biosignal
In short: as §1

Human neurokinin (NK1) = molecular target: T11, Human neurokinin (NK1) (Homo sapiens, UniProt P25103); assay: Radioligand binding, human neurokinin NK1 membranes, filtration, [125I]-Substance P
T11 construct: purchased Perkin Elmer Biosignal
In short: as §2

T5 sequence (P41143 whole entry): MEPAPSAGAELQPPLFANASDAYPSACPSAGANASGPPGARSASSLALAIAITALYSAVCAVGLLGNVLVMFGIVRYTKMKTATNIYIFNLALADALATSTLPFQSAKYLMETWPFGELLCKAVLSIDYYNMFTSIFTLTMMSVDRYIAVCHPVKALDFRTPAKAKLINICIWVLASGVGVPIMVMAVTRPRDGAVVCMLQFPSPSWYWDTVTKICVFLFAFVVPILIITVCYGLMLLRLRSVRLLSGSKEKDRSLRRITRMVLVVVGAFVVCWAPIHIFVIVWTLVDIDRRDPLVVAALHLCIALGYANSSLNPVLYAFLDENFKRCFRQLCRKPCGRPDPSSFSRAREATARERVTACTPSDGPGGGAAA
T6 sequence (P35372 whole entry): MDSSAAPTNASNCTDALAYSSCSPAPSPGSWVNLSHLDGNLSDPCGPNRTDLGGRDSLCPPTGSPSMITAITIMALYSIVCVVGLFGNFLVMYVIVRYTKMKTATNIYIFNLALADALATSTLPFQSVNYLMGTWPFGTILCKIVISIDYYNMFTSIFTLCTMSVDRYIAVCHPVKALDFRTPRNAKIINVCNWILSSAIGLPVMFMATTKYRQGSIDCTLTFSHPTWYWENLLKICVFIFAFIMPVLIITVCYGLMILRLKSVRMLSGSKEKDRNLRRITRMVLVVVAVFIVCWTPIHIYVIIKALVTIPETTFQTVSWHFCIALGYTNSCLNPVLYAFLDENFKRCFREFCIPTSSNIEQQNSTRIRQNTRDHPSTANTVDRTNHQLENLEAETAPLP
T1 sequence (Q99705 whole entry): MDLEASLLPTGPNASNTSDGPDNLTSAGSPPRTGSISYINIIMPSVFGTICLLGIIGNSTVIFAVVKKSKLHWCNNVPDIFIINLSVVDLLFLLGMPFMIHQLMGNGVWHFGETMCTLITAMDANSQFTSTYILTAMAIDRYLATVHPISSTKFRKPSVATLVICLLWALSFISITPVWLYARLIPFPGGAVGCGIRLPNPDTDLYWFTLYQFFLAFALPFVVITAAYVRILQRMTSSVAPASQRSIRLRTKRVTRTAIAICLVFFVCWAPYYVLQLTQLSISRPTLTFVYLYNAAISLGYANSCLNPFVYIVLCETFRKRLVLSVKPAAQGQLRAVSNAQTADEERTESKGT
T2 sequence (P41145 whole entry): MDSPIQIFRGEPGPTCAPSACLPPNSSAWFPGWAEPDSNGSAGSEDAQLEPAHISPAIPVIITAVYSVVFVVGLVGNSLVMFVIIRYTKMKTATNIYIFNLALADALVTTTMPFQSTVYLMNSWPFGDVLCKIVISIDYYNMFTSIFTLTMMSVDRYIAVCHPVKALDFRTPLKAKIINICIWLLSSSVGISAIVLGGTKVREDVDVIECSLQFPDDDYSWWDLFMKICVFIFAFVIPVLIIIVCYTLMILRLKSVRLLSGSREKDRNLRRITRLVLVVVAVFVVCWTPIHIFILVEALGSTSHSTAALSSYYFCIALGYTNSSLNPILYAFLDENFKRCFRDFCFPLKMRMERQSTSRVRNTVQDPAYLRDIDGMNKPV
T11 sequence (P25103 whole entry): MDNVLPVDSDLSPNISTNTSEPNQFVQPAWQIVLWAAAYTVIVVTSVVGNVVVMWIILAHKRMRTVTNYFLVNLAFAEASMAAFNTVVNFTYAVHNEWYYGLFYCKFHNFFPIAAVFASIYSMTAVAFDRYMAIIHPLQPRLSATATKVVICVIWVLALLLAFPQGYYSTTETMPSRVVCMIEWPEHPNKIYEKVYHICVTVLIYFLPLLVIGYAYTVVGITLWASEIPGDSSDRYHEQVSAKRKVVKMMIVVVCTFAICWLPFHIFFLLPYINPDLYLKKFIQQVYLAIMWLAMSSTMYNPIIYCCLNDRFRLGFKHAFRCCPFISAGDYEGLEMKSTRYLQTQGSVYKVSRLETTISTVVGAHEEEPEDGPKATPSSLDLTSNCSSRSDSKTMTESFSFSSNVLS
T3 sequence (P41146 whole entry): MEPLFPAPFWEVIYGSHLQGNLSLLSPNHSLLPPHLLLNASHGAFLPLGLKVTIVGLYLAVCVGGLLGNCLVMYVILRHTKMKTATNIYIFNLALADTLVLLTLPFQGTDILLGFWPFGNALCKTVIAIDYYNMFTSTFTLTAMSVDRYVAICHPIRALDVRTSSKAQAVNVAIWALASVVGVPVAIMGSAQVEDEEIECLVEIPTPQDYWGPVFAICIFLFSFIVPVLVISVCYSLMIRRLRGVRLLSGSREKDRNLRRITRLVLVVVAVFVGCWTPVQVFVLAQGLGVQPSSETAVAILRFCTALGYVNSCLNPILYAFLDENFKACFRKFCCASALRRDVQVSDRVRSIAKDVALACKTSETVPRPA
T10 sequence (P32245 whole entry): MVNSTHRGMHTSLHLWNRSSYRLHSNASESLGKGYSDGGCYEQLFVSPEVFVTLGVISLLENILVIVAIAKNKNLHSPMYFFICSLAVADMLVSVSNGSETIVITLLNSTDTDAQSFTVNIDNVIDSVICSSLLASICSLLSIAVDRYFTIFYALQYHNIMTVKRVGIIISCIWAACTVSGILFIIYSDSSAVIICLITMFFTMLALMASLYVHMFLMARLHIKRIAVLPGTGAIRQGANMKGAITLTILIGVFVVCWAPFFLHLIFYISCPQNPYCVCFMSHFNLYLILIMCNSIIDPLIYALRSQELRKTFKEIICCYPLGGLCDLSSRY
T4 sequence (P41968 whole entry): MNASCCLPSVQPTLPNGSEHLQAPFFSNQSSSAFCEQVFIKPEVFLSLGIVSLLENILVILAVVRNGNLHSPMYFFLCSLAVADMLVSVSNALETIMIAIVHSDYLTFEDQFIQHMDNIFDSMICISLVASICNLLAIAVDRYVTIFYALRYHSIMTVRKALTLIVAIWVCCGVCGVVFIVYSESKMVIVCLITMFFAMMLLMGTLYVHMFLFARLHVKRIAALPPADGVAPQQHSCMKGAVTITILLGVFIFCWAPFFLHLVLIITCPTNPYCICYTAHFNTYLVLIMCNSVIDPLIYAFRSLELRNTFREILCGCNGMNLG
T8 sequence (P33032 whole entry): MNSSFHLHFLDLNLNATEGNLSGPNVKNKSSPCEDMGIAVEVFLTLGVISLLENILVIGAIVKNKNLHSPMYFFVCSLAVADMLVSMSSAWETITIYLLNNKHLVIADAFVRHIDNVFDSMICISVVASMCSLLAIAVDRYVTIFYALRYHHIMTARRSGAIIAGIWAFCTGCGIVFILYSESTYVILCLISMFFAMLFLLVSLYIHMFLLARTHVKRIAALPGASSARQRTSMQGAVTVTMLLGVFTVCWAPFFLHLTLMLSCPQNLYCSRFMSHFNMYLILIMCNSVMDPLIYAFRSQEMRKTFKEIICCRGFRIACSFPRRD

| Structure (SMILES) | A6 radioligand binding, percentage inhibition ([1]; [125I]-S36057) | A2 radioligand binding, percentage inhibition (Human κ-Opioid (KOP); [3H]-Diprenorphine) | A10 radioligand binding, percentage inhibition (Human opioid (ORL1); [125I]-Nociceptin) | A3 radioligand binding, percentage inhibition (Human Melanocortin (MC3); [125I]-NDP-αMSH) | A1 radioligand binding, percentage inhibition (Human δ-opioid (DOP); [3H]-Bremazocine) | A7 radioligand binding, percentage inhibition (Human μ-opioid (MOP); [3H]-Naloxone) | A9 radioligand binding, percentage inhibition ([2]; [125I]-PYY) | A5 radioligand binding, percentage inhibition (Human melanocortin (MC5); [125I]-NDP-αMSH) | A11 radioligand binding, percentage inhibition (Mouse urotensin (mUR2); [125I]-Urotensin II) | A4 radioligand binding, percentage inhibition (Human Melanocortin (MC4); [125I]-NDP-αMSH) | A8 radioligand binding, percentage inhibition (Human neurokinin (NK1); [125I]-Substance P) | further results |
| --- | --- | --- | --- | --- | --- | --- | --- | --- | --- | --- | --- | --- |
| NCCCC(=O)NC1C(OCc2ccccc2)OC(COCc2ccc3ccccc3c2)C(O)C1OCc1ccccc1 (stereo not shown) [compound 378] | – | – | – | – | – | – | – | – | – | – | – | A6: inhibition of radioligand binding, human melanin-concentrating hormone (MCH1) ([1]; [125I]-S36057): − (“−” indicates less than 50% inhibition at 10 μM); A2: inhibition of radioligand binding, human κ-opioid (KOP) (Human κ-Opioid (KOP); [3H]-Diprenorphine): − (“−” indicates less than 50% inhibition at 10 μM); A10: inhibition of radioligand binding, human opioid (ORL1) (Human opioid (ORL1); [125I]-Nociceptin): − (“−” indicates less than 50% inhibition at 10 μM); A3: inhibition of radioligand binding, human melanocortin (MC3) (Human Melanocortin (MC3); [125I]-NDP-αMSH): − (“−” indicates less than 50% inhibition at 10 μM); A1: inhibition of radioligand binding, human δ-opioid (DOP) (Human δ-opioid (DOP); [3H]-Bremazocine): − (“−” indicates less than 50% inhibition at 10 μM); A7: inhibition of radioligand binding, human μ-opioid (MOP) (Human μ-opioid (MOP); [3H]-Naloxone): − (“−” indicates less than 50% inhibition at 10 μM); A9: inhibition of radioligand binding, human neuropeptide Y (NPY-Y1) ([2]; [125I]-PYY): − (“−” indicates less than 50% inhibition at 10 μM); A5: inhibition of radioligand binding, human melanocortin (MC5) (Human melanocortin (MC5); [125I]-NDP-αMSH): + (“+” indicates greater than 50% inhibition at 10 μM); A11: inhibition of radioligand binding, mouse urotensin (mUR2) (Mouse urotensin (mUR2); [125I]-Urotensin II): − (“−” indicates less than 50% inhibition at 10 μM); A4: inhibition of radioligand binding, human melanocortin (MC4) (Human Melanocortin (MC4); [125I]-NDP-αMSH): + (“+” indicates greater than 50% inhibition at 10 μM); A8: inhibition of radioligand binding, human neurokinin (NK1) (Human neurokinin (NK1); [125I]-Substance P): + (“+” indicates greater than 50% inhibition at 10 μM) |
| COC[C@H]1OC(OCCNC(=N)N)[C@H](NC(=O)c2ccccc2)[C@@H](OCc2ccc3ccccc3c2)[C@@H]1O (stereo partly shown) [compound 123] | − (“−” indicates less than 50% inhibition at 10 μM) | − (“−” indicates less than 50% inhibition at 10 μM) | − (“−” indicates less than 50% inhibition at 10 μM) | − (“−” indicates less than 50% inhibition at 10 μM) | − (“−” indicates less than 50% inhibition at 10 μM) | − (“−” indicates less than 50% inhibition at 10 μM) | − (“−” indicates less than 50% inhibition at 10 μM) | + (“+” indicates greater than 50% inhibition at 10 μM) | − (“−” indicates less than 50% inhibition at 10 μM) | − (“−” indicates less than 50% inhibition at 10 μM) | + (“+” indicates greater than 50% inhibition at 10 μM) | – |
| CO[C@H]1[C@H](O)[C@@H](COCc2ccc(Cl)cc2)OC(OCc2ccc(Cl)cc2)[C@@H]1NC(=O)CCCNC(=N)N (stereo partly shown) [compound 108] | − (“−” indicates less than 50% inhibition at 10 μM) | − (“−” indicates less than 50% inhibition at 10 μM) | − (“−” indicates less than 50% inhibition at 10 μM) | + (“+” indicates greater than 50% inhibition at 10 μM) | − (“−” indicates less than 50% inhibition at 10 μM) | − (“−” indicates less than 50% inhibition at 10 μM) | − (“−” indicates less than 50% inhibition at 10 μM) | + (“+” indicates greater than 50% inhibition at 10 μM) | − (“−” indicates less than 50% inhibition at 10 μM) | + (“+” indicates greater than 50% inhibition at 10 μM) | + (“+” indicates greater than 50% inhibition at 10 μM) | – |
| CO[C@H]1[C@H](O)[C@@H](COCc2ccc(-c3ccccc3)cc2)OC(OCCc2ccccc2)[C@@H]1NC(=O)CCCNC(=N)N (stereo partly shown) [compound 112] | − (“−” indicates less than 50% inhibition at 10 μM) | − (“−” indicates less than 50% inhibition at 10 μM) | − (“−” indicates less than 50% inhibition at 10 μM) | + (“+” indicates greater than 50% inhibition at 10 μM) | − (“−” indicates less than 50% inhibition at 10 μM) | − (“−” indicates less than 50% inhibition at 10 μM) | − (“−” indicates less than 50% inhibition at 10 μM) | + (“+” indicates greater than 50% inhibition at 10 μM) | − (“−” indicates less than 50% inhibition at 10 μM) | + (“+” indicates greater than 50% inhibition at 10 μM) | + (“+” indicates greater than 50% inhibition at 10 μM) | – |
| COC[C@H]1OC(OCc2ccc3ccccc3c2)[C@H](NC(=O)CCCN)[C@@H](OCc2ccccc2)[C@@H]1O (stereo partly shown) [compound 20] | – | – | – | – | – | – | – | – | – | – | – | A6 radioligand binding inhibition ([1]; human MCH1 membranes): − (“−” indicates less than 50% inhibition at 10 μM); A2 radioligand binding inhibition (Human κ-Opioid (KOP); human κ-opioid (KOP) membranes): − (“−” indicates less than 50% inhibition at 10 μM); A10 radioligand binding inhibition (Human opioid (ORL1); human ORL1 membranes): − (“−” indicates less than 50% inhibition at 10 μM); A3 radioligand binding inhibition (Human Melanocortin (MC3); human melanocortin MC3 membranes): − (“−” indicates less than 50% inhibition at 10 μM); A1 radioligand binding inhibition (Human δ-opioid (DOP); human δ-opioid (DOP) membranes): − (“−” indicates less than 50% inhibition at 10 μM); A7 radioligand binding inhibition (Human μ-opioid (MOP); human μ-opioid (MOP) membranes): − (“−” indicates less than 50% inhibition at 10 μM); A9 radioligand binding inhibition ([2]; human NPY-Y1 membranes): − (“−” indicates less than 50% inhibition at 10 μM); A5 radioligand binding inhibition (Human melanocortin (MC5); human melanocortin MC5 membranes): − (“−” indicates less than 50% inhibition at 10 μM); A11 radioligand binding inhibition (Mouse urotensin (mUR2); mouse urotensin mUR2 membranes): − (“−” indicates less than 50% inhibition at 10 μM); A4 radioligand binding inhibition (Human Melanocortin (MC4); human melanocortin MC4 membranes): − (“−” indicates less than 50% inhibition at 10 μM); A8 radioligand binding inhibition (Human neurokinin (NK1); human neurokinin NK1 membranes): + (“+” indicates greater than 50% inhibition at 10 μM) |
